Values of other authors, collected in patent US6046331A, “Imidazolones and their use in treating benign prostatic hyperplasia and other disorders” (Synaptic Pharmaceutical Corporation, priority 1998, dated 2000).

Key:
[1] = cited from earlier work
[2] = in vivo; cited from earlier work

COc1cc2nc(N3CCN(C(=O)C4CCCO4)CC3)nc(N)c2cc1OC (stereo not shown) [terazosin]
relieving the symptoms of / treating BPH [1]: useful for treating BPH
side effects [2]: untoward side effects

COc1cc2nc(N3CCN(C(=O)c4ccco4)CC3)nc(N)c2cc1OC [prazosin]
relieving the symptoms of / treating BPH [1]: useful for treating BPH
side effects [2]: untoward side effects

CC(COc1ccccc1)N(CCCl)Cc1ccccc1 (stereo not shown) [phenoxybenzamine]
relieving the symptoms of / treating BPH [1]: useful in relieving the symptoms of BPH
side effects [2]: significant side effects such as dizziness and asthenia

Clc1cccc(Cl)c1N=C1NCCN1 [clonidine]
side effects [2]: dry mouth and sedation
